# Biological target: Cathepsin S (human recombinant CTSS) (Homo sapiens, UniProt P25774)
# Experiment: fluorescence CTSS activity assay kit with recombinant enzyme
# Type: biochemical
# Sequence of Cathepsin S (human recombinant CTSS) (P25774 115-331): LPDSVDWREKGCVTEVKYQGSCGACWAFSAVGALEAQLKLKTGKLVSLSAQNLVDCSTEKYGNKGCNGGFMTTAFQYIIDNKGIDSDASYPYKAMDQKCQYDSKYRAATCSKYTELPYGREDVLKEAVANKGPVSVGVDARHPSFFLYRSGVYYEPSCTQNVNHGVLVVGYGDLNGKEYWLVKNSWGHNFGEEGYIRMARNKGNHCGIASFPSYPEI
row,Compound,IC50
1,"CC(C)C[C@H](NC(=O)[C@H](Cc1ccccc1)NC(=O)OCc1ccccc1)C(=O)C=O [Z-FL, Z-FL-COCHO]",0.172 ± 0.0327 µM
2,"CC(C)C[C@H](NC(=O)[C@H](Cc1ccccc1)NC(=O)OCc1ccccc1)C(=O)C=O [Z-FL-hydrate, Z-FL-COCHO-hydrate]",0.262 ± 0.0593 µM
